For ten molecules, GI50 results are on record in patent US7863315B2, “2-indolinone derivatives as selective histone deacetylase inhibitors” (Shenzhen Chipscreen Biosciences, Ltd., priority 2008, dated 2011).

Common to all, as to assay type: cell-based
In test [1] the test system is A549 human lung cancer cell line. The test is described as follows: Anti-cell proliferation (MTS), A549. The settings on record: 72 hours. How it is done:
(§1) Measurement of in vivo cell proliferation:
(§2) Tumor cells were trypsinized and plated into 96-well plates at 3,000 per well and incubated in complete medium with 10% FBS for 24 hours. Compounds were added over a final concentration range of 100 μmol/L to 100 nmol/L in 0.1% DMSO and incubated for 72 hours in complete medium. The effects on proliferation were determined by addition of MTS reagent (Promega) according to the instruction, incubation for 2 hours at 37° C. in CO2 incubator, and record the absorbance at 490 nm using an ELISA plate reader.

The subject of test [2] is HeLa human cervical cancer cell line. Briefly: Anti-cell proliferation (MTS), HeLa. The settings on record: 72 hours. How it is done:
as §1, §2

Test [3] concerns HL60 human leukemia cell line. The test is described as follows: Anti-cell proliferation (MTS), HL60. The settings on record: HL-60, 72 hours. How it is done: as §1, §2
In test [4] the test system is Hut-78 human T lymphoma cell line. Briefly: Anti-cell proliferation (MTS), Hut-78. The settings on record: HuT78, 72 hours. The procedure:
as §1, §2

Structures are written as SMILES.

Take `Nc1ccccc1NC(=O)CCCCCNC(=O)c1cccc(/C=C2\C(=O)Nc3ccc(F)cc32)c1` [Example 44, 6-(3-((5-fluoro-2-oxoindolin-3-ylidene)methyl)benzamido)-N-(2-aminophenyl)hexanamide]: the GI50 was found to be 19.5 µM in test [1], 11 µM in test [2], 2.95 µM in test [3] and 4.37 µM in test [4].

As to `Nc1cc(F)ccc1NC(=O)CCCCCCCNC(=O)c1ccc(/C=N/N=C2\C(=O)Nc3ccc(F)cc32)cc1` [Example 36, 8-(4-(((5-fluoro-2-oxoindolin-3-ylidene)hydrazono)methyl)benzamido)-N-(2-amino-4-fluorophenyl)octanamide], the 50% growth inhibitory concentration (GI50) in test [1] was determined as 30.2 µM; in test [2], 55 µM; in test [3] it was 14.8 µM; in test [4], 10.7 µM.

For the molecule `Nc1cc(F)ccc1NC(=O)CCCCCNC(=O)c1ccc(/C=C2\C(=O)Nc3ccc(F)cc32)cc1` [Example 40, 6-(4-((5-fluoro-2-oxoindolin-3-ylidene)methyl)benzamido)-N-(2-amino-4-fluorophenyl)hexanamide], the GI50 in test [1] amounted to 36.3 µM; in test [2], 33.9 µM; in test [3] it was 5.75 µM; in test [4] it was 4.17 µM.

For the molecule `Nc1ccccc1NC(=O)CCCCCNC(=O)c1ccc(/C=C2\C(=O)Nc3ccc(F)cc32)cc1` [Example 39, 6-(4-((5-fluoro-2-oxoindolin-3-ylidene)methyl)benzamido)-N-(2-aminophenyl)hexanamide], the GI50 in test [1] was determined as 28.8 µM; in test [2], 22.9 µM; in test [3] it was 4.17 µM; in test [4] it was 4.17 µM.

`Nc1cc(F)ccc1NC(=O)CCCCNC(=O)c1cccc(/C=C2\C(=O)Nc3ccc(F)cc32)c1` [Example 50, 5-(3-((5-fluoro-2-oxoindolin-3-ylidene)methyl)benzamido)-N-(2-amino-4-fluorophenyl)pentanamide]: the GI50 in test [1] amounted to 35.5 µM; in test [2] it was 20.9 µM; in test [3] it was 3.98 µM; in test [4] it was 6.76 µM.

Consider `Cc1[nH]c(/C=N/N=C2\C(=O)Nc3ccc(F)cc32)c(C)c1C(=O)NCCCCCCCC(=O)NO` [Example 26, 8-(5-(((5-fluoro-2-oxoindolin-3-ylidene)hydrazono)methyl)-2,4-dimethyl-1H-pyrrole-3-carboxamido)-N-hydroxyoctanamide], for which the GI50 in test [1] was 35.5 µM; in test [2] it was 25.7 µM; in test [3], 9.33 µM; in test [4] it was 14.1 µM.

`Nc1ccccc1NC(=O)CCCCCCCNC(=O)c1cccc(/C=C2\C(=O)Nc3ccc(F)cc32)c1` [Example 54, 8-(3-((5-fluoro-2-oxoindolin-3-ylidene)methyl)benzamido)-N-(2-aminophenyl)octanamide]: the GI50 in test [1] is 24 µM; in test [2], 18.2 µM; in test [3] it was 2.46 µM; in test [4], 3.89 µM.

Take `O=C(CCCCCCCNC(=O)c1cccc(/C=C2\C(=O)Nc3ccc(F)cc32)c1)NO` [Example 56, 8-(3-((5-fluoro-2-oxoindolin-3-ylidene)methyl)benzamido)-N-hydroxyoctanamide]: the GI50 came to 28.8 µM in test [1], 17.4 µM in test [2], 5.62 µM in test [3] and 4.57 µM in test [4].

In the case of `Cc1[nH]c(/C=N/N=C2\C(=O)Nc3ccc(F)cc32)c(C)c1C(=O)NCCCCCCCC(=O)Nc1ccc(F)cc1N` [Example 27, 8-(5-(((5-fluoro-2-oxoindolin-3-ylidene)hydrazono)methyl)-2,4-dimethyl-1H-pyrrole-3-carboxamido)-N-(2-amino-4-fluorophenyl)octanamide], the GI50 was more than 100 µM in test [1], more than 100 µM in test [2], 5.89 µM in test [3] and 6.92 µM in test [4].

For the molecule `Cc1[nH]c(/C=N/N=C2\C(=O)Nc3ccc(F)cc32)c(C)c1C(=O)NCCCCCCCC(=O)Nc1ccccc1N` [Example 28, 8-(5-(((5-fluoro-2-oxoindolin-3-ylidene)hydrazono)methyl)-2,4-dimethyl-1H-pyrrole-3-carboxamido)-N-(2-aminophenyl)octanamide], the GI50 is 36.3 µM in test [1], 28.2 µM in test [2], 4.37 µM in test [3] and 4.27 µM in test [4].

A word on the GI50: it is the concentration at which growth is held to half of that of the control.
